In US8802597B2, “Herbicidal pyrimidines” (E I du Pont de Nemours and Company, priority 2003, dated 2014):
Where two headings read alike, the source gives them in different places.

How the values were obtained:
Type in all cases: in vivo
[1] = tested on: Surinam grass (Brachiaria decumbens); experiment: Test B pre/postemergence; settings: Urochloa decumbens; for pest or weed control at 125 g/ha: 125 g ai/ha; for pest or weed control at 500 g/ha: 500 g ai/ha
Summary of the method: (§1)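 Formulation: non-phytotoxic solvent blend with surfactant. Timing: preemergence on seeds, postemergence at 1- to 4-leaf (2–18 cm). Assessment: visual, 0–100 against controls, after 13–15 days' greenhouse growth.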

[2] = tested on: barnyardgrass (Echinochloa crus-galli); experiment: Test B pre/postemergence; settings: Echinochloa crus-galli; for pest or weed control at 125 g/ha: 125 g ai/ha; for pest or weed control at 500 g/ha: 500 g ai/ha
Summary of the method: as §1

[3] = tested on: cocklebur (Xanthium strumarium); experiment: Test B pre/postemergence; settings: Xanthium strumarium; for pest or weed control at 125 g/ha: 125 g ai/ha; for pest or weed control at 500 g/ha: 500 g ai/ha
Summary of the method: as §1

[4] = tested on: corn (Zea mays); experiment: Test B pre/postemergence; settings: Zea mays
Summary of the method: as §1

[5] = tested on: crabgrass (Digitaria sanguinalis); experiment: Test B pre/postemergence; settings: Digitaria sanguinalis; for pest or weed control at 125 g/ha: 125 g ai/ha; for pest or weed control at 500 g/ha: 500 g ai/ha
Summary of the method: as §1

[6] = tested on: giant foxtail (Setaria faberii); experiment: Test B pre/postemergence; settings: Setaria faberi; for pest or weed control at 125 g/ha: 125 g ai/ha; for pest or weed control at 500 g/ha: 500 g ai/ha
Summary of the method: as §1

[7] = tested on: lambsquarters (Chenopodium album); experiment: Test B pre/postemergence; settings: Chenopodium album; for pest or weed control at 125 g/ha: 125 g ai/ha; for pest or weed control at 500 g/ha: 500 g ai/ha
Summary of the method: as §1

[8] = tested on: morningglory (Ipomoea coccinea); experiment: Test B pre/postemergence; settings: Ipomoea; for pest or weed control at 125 g/ha: 125 g ai/ha; for pest or weed control at 500 g/ha: 500 g ai/ha
Summary of the method: as §1

[9] = tested on: pigweed (Amaranthus retroflexus); experiment: Test B pre/postemergence; settings: Amaranthus retroflexus; for pest or weed control at 125 g/ha: 125 g ai/ha; for pest or weed control at 500 g/ha: 500 g ai/ha
Summary of the method: as §1

[10] = tested on: velvetleaf (Abutilon theophrasti); experiment: Test B pre/postemergence; settings: Abutilon theophrasti; for pest or weed control at 125 g/ha: 125 g ai/ha; for pest or weed control at 500 g/ha: 500 g ai/ha
Summary of the method: as §1

[11] = tested on: wheat (Triticum aestivum); experiment: Test B pre/postemergence; settings: Triticum aestivum; for plant injury at 125 g/ha: 125 g ai/ha; for plant injury at 500 g/ha: 500 g ai/ha
Summary of the method: as §1

[12] = tested on: blackgrass (Alopecurus myosuroides); experiment: Test B postemergence; settings: Alopecurus myosuroides, post-emergence
Summary of the method: as §1

[13] = tested on: wild oat (Avena fatua); experiment: Test B postemergence; settings: Avena fatua, post-emergence
Summary of the method: as §1

[14] = tested on: barnyardgrass (Echinochloa crus-galli); experiment: Test B flooded paddy test; settings: Echinochloa crus-galli, Flood, 1000 g ai/ha; scale 0 (no effect) to 100 (complete control); read-out: Plant response rating, Barnyardgrass
Summary of the method: (§2)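 Visual injury scoring (0 = no effect, 100 = complete control) versus controls made 13 to 15 days after treatment in the greenhouse. Test species were grown in flooded paddy to the 2-leaf stage: rice, barnyardgrass, umbrella sedge, duck salad.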

[15] = tested on: duck salad (Heteranthera limosa); experiment: Test B flooded paddy test; settings: Heteranthera limosa, Flood, 1000 g ai/ha; scale 0 to 100; read-out: Plant response rating, Ducksalad
Summary of the method: as §2

[16] = tested on: rice (Oryza sativa); experiment: Test B flooded paddy test; settings: Oryza sativa, Flood, 1000 g ai/ha; scale 0 to 100; read-out: Plant response rating, Rice
Summary of the method: as §2

[17] = tested on: umbrella sedge (Cyperus difformis); experiment: Test B flooded paddy test; settings: Cyperus difformis, Flood, 1000 g ai/ha; scale 0 to 100; read-out: Plant response rating, Sedge, Umbrella
Summary of the method: as §2

Molecule COC(=O)c1nc(C2CC2)nc(N)c1I [Compound 7] has a pest or weed control at 125 g/ha ([1]; post-emergence, Postemergence, scale 0 to 100 (0 no effect, 100 complete control), read-out: Surinam Grass plant response rating) of 0%, a pest or weed control at 500 g/ha ([1]; post-emergence, Postemergence, scale 0 to 100, read-out: Plant response rating, Surinam Grass) of 20% and a pest or weed control at 125 g/ha ([1]; pre-emergence, Preemergence, scale 0 to 100 (0 no effect, 100 complete control), read-out: Plant response rating, Surinam Grass) of 0%. The pest or weed control at 500 g/ha ([1]; pre-emergence, Preemergence, scale 0 to 100 (0 no effect, 100 complete control), read-out: Surinam Grass plant response rating) was 0%, the pest or weed control at 125 g/ha ([2]; post-emergence, Postemergence, scale 0 to 100 (0 no effect, 100 complete control), read-out: Barnyardgrass plant response rating) was 0% and the pest or weed control at 500 g/ha ([2]; post-emergence, Postemergence, scale 0 to 100, read-out: Plant response rating, Barnyardgrass) was 30%. It also gave a pest or weed control at 125 g/ha ([2]; pre-emergence, Preemergence, scale 0 to 100 (0 no effect, 100 complete control), read-out: Plant response rating, Barnyardgrass) of 0%, a pest or weed control at 500 g/ha ([2]; pre-emergence, Preemergence, scale 0 to 100 (0 no effect, 100 complete control), read-out: Barnyardgrass plant response rating) of 30% and a pest or weed control at 125 g/ha ([3]; post-emergence, Postemergence, scale 0 to 100 (0 no effect, 100 complete control), read-out: Cocklebur plant response rating) of 90%. It also gave a pest or weed control at 500 g/ha ([3]; post-emergence, Postemergence, scale 0 to 100, read-out: Plant response rating, Cocklebur) of 100%, a pest or weed control at 125 g/ha ([3]; pre-emergence, Preemergence, scale 0 to 100 (0 no effect, 100 complete control), read-out: Plant response rating, Cocklebur) of 70% and a pest or weed control at 500 g/ha ([3]; pre-emergence, Preemergence, scale 0 to 100 (0 no effect, 100 complete control), read-out: Cocklebur plant response rating) of 80%. The plant injury at 125 g/ha ([4]; post-emergence, Postemergence, 125 g ai/ha, scale 0 to 100 (0 no effect, 100 complete control), read-out: Corn plant response rating) was 0%, the Corn plant response rating (crop injury, 0 = no effect, 100 = complete kill) at 500 g/ha ([4]; post-emergence, Postemergence, 500 g ai/ha, scale 0 to 100) was 30% and the Corn plant response rating (crop injury, 0 = no effect, 100 = complete kill) at 125 g/ha ([4]; pre-emergence, Preemergence, 125 g ai/ha, scale 0 to 100 (0 no effect, 100 complete control)) was 0%. For the same molecule, the plant injury at 500 g/ha ([4]; pre-emergence, Preemergence, 500 g ai/ha, scale 0 to 100 (0 no effect, 100 complete control), read-out: Corn plant response rating) was 0%, the pest or weed control at 125 g/ha ([5]; post-emergence, Postemergence, scale 0 to 100 (0 no effect, 100 complete control), read-out: Crabgrass plant response rating) was 10% and the pest or weed control at 500 g/ha ([5]; post-emergence, Postemergence, scale 0 to 100, read-out: Plant response rating, Crabgrass) was 30%. It also gave a pest or weed control at 125 g/ha ([5]; pre-emergence, Preemergence, scale 0 to 100 (0 no effect, 100 complete control), read-out: Plant response rating, Crabgrass) of 0%, a pest or weed control at 500 g/ha ([5]; pre-emergence, Preemergence, scale 0 to 100 (0 no effect, 100 complete control), read-out: Crabgrass plant response rating) of 30% and a pest or weed control at 125 g/ha ([6]; post-emergence, Postemergence, scale 0 to 100 (0 no effect, 100 complete control), read-out: Foxtail, Giant plant response rating) of 20%. It also gave a pest or weed control at 500 g/ha ([6]; post-emergence, Postemergence, scale 0 to 100, read-out: Plant response rating, Foxtail, Giant) of 40%, a pest or weed control at 125 g/ha ([6]; pre-emergence, Preemergence, scale 0 to 100 (0 no effect, 100 complete control), read-out: Plant response rating, Foxtail, Giant) of 0% and a pest or weed control at 500 g/ha ([6]; pre-emergence, Preemergence, scale 0 to 100 (0 no effect, 100 complete control), read-out: Foxtail, Giant plant response rating) of 0%. It also gave a pest or weed control at 125 g/ha ([7]; post-emergence, Postemergence, scale 0 to 100 (0 no effect, 100 complete control), read-out: Lambsquarters plant response rating) of 80%, a pest or weed control at 500 g/ha ([7]; post-emergence, Postemergence, scale 0 to 100, read-out: Plant response rating, Lambsquarters) of 100% and a pest or weed control at 125 g/ha ([7]; pre-emergence, Preemergence, scale 0 to 100 (0 no effect, 100 complete control), read-out: Plant response rating, Lambsquarters) of 80%. The pest or weed control at 500 g/ha ([7]; pre-emergence, Preemergence, scale 0 to 100 (0 no effect, 100 complete control), read-out: Lambsquarters plant response rating) was 90%, the pest or weed control at 125 g/ha ([8]; post-emergence, Postemergence, scale 0 to 100 (0 no effect, 100 complete control), read-out: Morningglory plant response rating) was 80% and the pest or weed control at 500 g/ha ([8]; post-emergence, Postemergence, scale 0 to 100, read-out: Plant response rating, Morningglory) was 90%. It also gave a pest or weed control at 125 g/ha ([8]; pre-emergence, Preemergence, scale 0 to 100 (0 no effect, 100 complete control), read-out: Plant response rating, Morningglory) of 70%, a pest or weed control at 500 g/ha ([8]; pre-emergence, Preemergence, scale 0 to 100 (0 no effect, 100 complete control), read-out: Morningglory plant response rating) of 80% and a pest or weed control at 125 g/ha ([9]; post-emergence, Postemergence, scale 0 to 100 (0 no effect, 100 complete control), read-out: Pigweed plant response rating) of 0%. The pest or weed control at 500 g/ha ([9]; post-emergence, Postemergence, scale 0 to 100, read-out: Plant response rating, Pigweed) was 90%, the pest or weed control at 125 g/ha ([9]; pre-emergence, Preemergence, scale 0 to 100 (0 no effect, 100 complete control), read-out: Plant response rating, Pigweed) was 90% and the pest or weed control at 500 g/ha ([9]; pre-emergence, Preemergence, scale 0 to 100 (0 no effect, 100 complete control), read-out: Pigweed plant response rating) was 90%. For the same molecule, the pest or weed control at 125 g/ha ([10]; post-emergence, Postemergence, scale 0 to 100 (0 no effect, 100 complete control), read-out: Velvetleaf plant response rating) was 50%, the pest or weed control at 500 g/ha ([10]; post-emergence, Postemergence, scale 0 to 100, read-out: Plant response rating, Velvetleaf) was 90% and the pest or weed control at 125 g/ha ([10]; pre-emergence, Preemergence, scale 0 to 100 (0 no effect, 100 complete control), read-out: Plant response rating, Velvetleaf) was 50%. It also gave a pest or weed control at 500 g/ha ([10]; pre-emergence, Preemergence, scale 0 to 100 (0 no effect, 100 complete control), read-out: Velvetleaf plant response rating) of 80%, a plant injury at 125 g/ha ([11]; post-emergence, Postemergence, scale 0 to 100 (0 no effect, 100 complete control), read-out: Wheat plant response rating) of 50% and a plant injury at 500 g/ha ([11]; post-emergence, Postemergence, scale 0 to 100, read-out: Plant response rating, Wheat) of 80%. The plant injury at 125 g/ha ([11]; pre-emergence, Preemergence, scale 0 to 100 (0 no effect, 100 complete control), read-out: Plant response rating, Wheat) was 0%, the plant injury at 500 g/ha ([11]; pre-emergence, Preemergence, scale 0 to 100 (0 no effect, 100 complete control), read-out: Wheat plant response rating) was 30% and the pest or weed control at 125 g/ha ([12]; 125 g ai/ha, scale 0 to 100 (0 no effect, 100 complete control), read-out: Blackgrass plant response rating) was 60%. For the same molecule, the pest or weed control at 500 g/ha ([12]; 500 g ai/ha, scale 0 to 100, read-out: Plant response rating, Blackgrass) was 80%, the pest or weed control at 125 g/ha ([13]; 125 g ai/ha, scale 0 to 100 (0 no effect, 100 complete control), read-out: Oat, Wild plant response rating) was 40% and the pest or weed control at 500 g/ha ([13]; 500 g ai/ha, scale 0 to 100, read-out: Plant response rating, Oat, Wild) was 70%. It also gave a pest or weed control at 1000 g/ha [14] of 20%, a pest or weed control at 1000 g/ha [15] of 0% and a plant injury at 1000 g/ha [16] of 0%. The pest or weed control at 1000 g/ha [17] was 0%.
